# Patent publication US20080139804A1, “Photosensitive Compounds” (priority 2005, published 2008)
# Several values for one entry are separate records, joined by “and”; a condition that tells them apart may be missing. Identical values can stand only once. Entries after “also recorded” stand apart in the source; their conditions may differ.
# Experiments:
# [1] = In vivo pharmacokinetics of zinc coproporphyrin-I in HeLa tumor-bearing nude mice (tissue fluorescence); design: species or system (BALB/c) nude mouse; details: 25 mg/kg intravenous in physiological saline, back and muscle, excitation 405 nm, fluorescence 580 nm
# Description: In the back of a (BALB/c) nude mouse, 5×10^6 HeLa cells in 0.1 ml were transplanted intradermally. When the tumor grew to 12-17 mm diameter, 25 mg/kg of zinc coproporphyrin-I in physiological saline was intravenously injected, and mice were sacrificed at each time shown in FIG. 2, and then zinc coproporphyrin-I in 3 kinds of tissues (tumor, back and muscle) was measured with excitation at 405 nm and fluorescence at 580 nm.
# [2] = Photophysical characteristics: absorption spectrum; format: physicochemical
# Description: Measurement of Photophysical Characteristics of Zinc Coproporphyrin-I
# [3] = Photophysical characteristics: generation of singlet oxygen (near infrared emission); format: physicochemical; details: excitation at 563 nm, emission at 1270 nm in near infrared light
# Description: Also, the generation of singlet oxygen was confirmed with excitation at 563 nm and emission at 1270 nm in near infrared light.
# DNA = DNA breakage under light irradiation; format: biochemical; details: under the irradiation of 350 nm light
# Description: (§1) Thus, after systemic administration of these compounds systemically, cancer tissues can be selectively killed, and the cancer can be treated without side effects by irradiating light only on the cancer tissues. Therefore, these compounds can be used as photodynamic therapy agents not only for surface cancer types (for example, breast cancer, skin cancer, esophageal cancer) but also deep cancer types (for example, gastric cancer, lung cancer).
# [4] = Anti-cellular activity with and without light irradiation, in vitro system using mice; format: cell-based
# Description: as §1
# HeLa tumor = assay: Drug efficacy of the agent for photodynamic therapy: laser irradiation of HeLa tumor in nude mouse, HE-stained sections; details: 203 mg/kg i.v.; YAG-Dye laser 580 nm after 28 minutes, 100 J/cm^2; tumors excised 24 hours after irradiation
# Description: To the back of a (BALB/c) nude mouse, 5×10^6 HeLa cells in 0.1 ml were intradermally transplanted. […] The wavelength was 580 nm. The light was emitted horizontally to the side of the tumor. To observe the necrosis layer, the tumors were excised out at 24 hours after the laser irradiation, fixed in 20% formaldehyde solution and embedded in paraffin. Sections were prepared, stained with HE and observed.
# [5] = patients administered therewith; cited from earlier work
# cancer cells = details: photo-irradiation; cited from earlier work
molecule,measurement,setting,value
zinc coproporphyrin-I,time until excreted out of the body,[1],3 to 4 days
same,absorption peaks,[2],403 nm and 535 nm and 571 nm
same,generation of singlet oxygen,[3],confirmed
same,DNA breakage,DNA,can break DNA efficiently
same,anti-cellular activity under the irradiation of light,[4]; irradiation of light which induces DNA cleavage,strong anti-cellular activity
same,anti-cellular activity by themselves,[4]; without light irradiation,do not demonstrate any anti-cellular activity
same,cells appearing to be dead,HeLa tumor,about 10 % of the total cells
same,histological observations after light irradiation of the HeLa tumor,HeLa tumor,"thrombus formation in the capillary vessels and hemorrhage inside of the tissues; also recorded: anucleated cells, chromatin condensed cells and cells with ruptured vacuoles were seen"
C=CC1=C(C)C2=CC3=C(/C=C/NO)C(C)(O)C(=CC4=NC(=CC5=NC(=CC1=N2)C(C)=C5CCC(=O)N[C@@H](CC(=O)[O-])C(=O)[O-])C(CCC(=O)N[C@@H](CC(=O)[O-])C(=O)[O-])=C4C)N3.[Na+].[Na+].[Na+].[Na+] (stereo partly shown) [ATX-S10 (Na)],complete excretion period from the body,[5],7 to 8 h
coproporphyrin-III,toxic effect on cancer cells compared to that of hematoporphyrin,cancer cells,superior toxic effect
